Measurements published in PubChem BioAssay (NCI).
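The compound was tested at five concentrations on cells cultured in 96-well plates, with a 48-hour exposure period. GI50: concentration for 50% inhibition of growth. The concentration for full growth arrest is given as TGI.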

Experiments:
Assay in all cases: DTP human tumour cell line panel, 48 h
786-0 renal = system: 786-0 renal
A498 renal = system: A498 renal
A549 NSCLC = system: A549 NSCLC
ACHN renal = system: ACHN renal
BT-549 breast = system: BT-549 breast
CAKI-1 renal = system: CAKI-1 renal
CCRF-CEM leukemia = system: CCRF-CEM leukemia
COLO 205 colon = system: COLO 205 colon
DU-145 prostate = system: DU-145 prostate
EKVX NSCLC = system: EKVX NSCLC
HCC-2998 colon = system: HCC-2998 colon
HCT-116 colon = system: HCT-116 colon
HCT-15 colon = system: HCT-15 colon
HL-60(TB) leukemia = system: HL-60(TB) leukemia
HOP-62 NSCLC = system: HOP-62 NSCLC
HOP-92 NSCLC = system: HOP-92 NSCLC
HS 578T breast = system: HS 578T breast
HT29 colon = system: HT29 colon
IGROV1 ovarian = system: IGROV1 ovarian
K-562 leukemia = system: K-562 leukemia
KM12 colon = system: KM12 colon
LOX IMVI melanoma = system: LOX IMVI melanoma
M14 melanoma = system: M14 melanoma
MALME-3M melanoma = system: MALME-3M melanoma
MCF7 breast = system: MCF7 breast
MDA-MB-231 breast = system: MDA-MB-231 breast
MDA-MB-435 = system: MDA-MB-435
MOLT-4 leukemia = system: MOLT-4 leukemia
NCI-H226 lung = system: NCI-H226 lung
NCI-H23 lung = system: NCI-H23 lung
NCI-H460 lung = system: NCI-H460 lung
NCI-H522 lung = system: NCI-H522 lung
NCI/ADR-RES ovarian = system: NCI/ADR-RES ovarian
OVCAR-3 ovarian = system: OVCAR-3 ovarian
OVCAR-4 ovarian = system: OVCAR-4 ovarian
OVCAR-5 ovarian = system: OVCAR-5 ovarian
OVCAR-8 ovarian = system: OVCAR-8 ovarian
PC-3 prostate = system: PC-3 prostate
RPMI-8226 leukemia = system: RPMI-8226 leukemia
RXF 393 renal = system: RXF 393 renal
SF-268 CNS = system: SF-268 CNS
SF-295 CNS = system: SF-295 CNS
SF-539 CNS = system: SF-539 CNS
SK-MEL-2 melanoma = system: SK-MEL-2 melanoma
SK-MEL-28 melanoma = system: SK-MEL-28 melanoma
SK-MEL-5 melanoma = system: SK-MEL-5 melanoma
SK-OV-3 ovarian = system: SK-OV-3 ovarian
SN12C renal = system: SN12C renal
SNB-19 CNS = system: SNB-19 CNS
SNB-75 CNS = system: SNB-75 CNS
SR leukemia = system: SR leukemia
SW-620 colon = system: SW-620 colon
T-47D breast = system: T-47D breast
TK-10 renal = system: TK-10 renal
U251 CNS = system: U251 CNS
UACC-257 melanoma = system: UACC-257 melanoma
UACC-62 melanoma = system: UACC-62 melanoma
UO-31 renal = system: UO-31 renal

Brc1ccc2[nH]cc([C@@H]3CN[C@@H](c4c[nH]c5ccc(Br)cc45)CN3)c2c1
TGI (786-0 renal): 14.3 µM
TGI (A498 renal): 28.7 µM
TGI (A549 NSCLC): 19.4 µM
TGI (ACHN renal): 9.59 µM
TGI (BT-549 breast): 30.8 µM
TGI (CAKI-1 renal): 21.9 µM
TGI (CCRF-CEM leukemia): 5.41 µM
TGI (COLO 205 colon): 3.69 µM
TGI (DU-145 prostate): 12.6 µM
TGI (EKVX NSCLC): 20.3 µM
TGI (HCC-2998 colon): 11.6 µM
TGI (HCT-116 colon): 9.2 µM
TGI (HCT-15 colon): 24.8 µM
TGI (HL-60(TB) leukemia): 4.24 µM
TGI (HOP-62 NSCLC): 23.1 µM
TGI (HOP-92 NSCLC): 7.57 µM
TGI (HS 578T breast): 29.6 µM
TGI (HT29 colon): 15.5 µM
TGI (IGROV1 ovarian): 16.6 µM
TGI (K-562 leukemia): 3.74 µM
TGI (KM12 colon): 7.06 µM
TGI (LOX IMVI melanoma): 3.38 µM
TGI (M14 melanoma): 15 µM
TGI (MALME-3M melanoma): 29.6 µM
TGI (MCF7 breast): 11.6 µM
TGI (MDA-MB-231 breast): 14.2 µM
TGI (MDA-MB-435): 11.9 µM
TGI (MOLT-4 leukemia): 4.51 µM
TGI (NCI-H226 lung): 31.3 µM
TGI (NCI-H23 lung): 25.3 µM
TGI (NCI-H460 lung): 24.4 µM
TGI (NCI-H522 lung): 4.39 µM
TGI (NCI/ADR-RES ovarian): 25.2 µM
TGI (OVCAR-3 ovarian): 18.4 µM
TGI (OVCAR-4 ovarian): 17.7 µM
TGI (OVCAR-5 ovarian): 20.6 µM
TGI (OVCAR-8 ovarian): 13.8 µM
TGI (PC-3 prostate): 14.7 µM
TGI (RPMI-8226 leukemia): 5.46 µM
TGI (RXF 393 renal): 24.5 µM
TGI (SF-268 CNS): 27.8 µM
TGI (SF-295 CNS): 14.7 µM
TGI (SF-539 CNS): 24.9 µM
TGI (SK-MEL-2 melanoma): 27.8 µM
TGI (SK-MEL-28 melanoma): 27.8 µM
TGI (SK-MEL-5 melanoma): 20.8 µM
TGI (SK-OV-3 ovarian): 25.7 µM
TGI (SN12C renal): 17.8 µM
TGI (SNB-19 CNS): 24.3 µM
TGI (SNB-75 CNS): 12.5 µM
TGI (SR leukemia): 4.17 µM
TGI (SW-620 colon): 15.6 µM
TGI (T-47D breast): 29.2 µM
TGI (TK-10 renal): 16.4 µM
TGI (U251 CNS): 11.2 µM
TGI (UACC-257 melanoma): 23.7 µM
TGI (UACC-62 melanoma): 21.8 µM
TGI (UO-31 renal): 9.47 µM

N#C/C(=C\c1ccc([N+](=O)[O-])cc1)n1nnc2cc(F)c(F)cc21
GI50 (786-0 renal): 1.86 µM
TGI (786-0 renal): 3.37 µM
GI50 (A498 renal): 1.9 µM
TGI (A498 renal): 3.71 µM
GI50 (A549 NSCLC): 2.62 µM
TGI (A549 NSCLC): 9.04 µM
GI50 (ACHN renal): 1.74 µM
TGI (ACHN renal): 3.11 µM
GI50 (BT-549 breast): 1.77 µM
TGI (BT-549 breast): 4.17 µM
GI50 (CAKI-1 renal): 1.54 µM
TGI (CAKI-1 renal): 2.92 µM
GI50 (CCRF-CEM leukemia): 1.94 µM
TGI (CCRF-CEM leukemia): 21.9 µM
GI50 (COLO 205 colon): 1.89 µM
TGI (COLO 205 colon): 3.93 µM
GI50 (DU-145 prostate): 1.72 µM
TGI (DU-145 prostate): 3.14 µM
GI50 (EKVX NSCLC): 1.7 µM
TGI (EKVX NSCLC): 3.56 µM
GI50 (HCC-2998 colon): 1.67 µM
TGI (HCC-2998 colon): 3.36 µM
GI50 (HCT-116 colon): 1.54 µM
TGI (HCT-116 colon): 3.01 µM
GI50 (HCT-15 colon): 1.93 µM
TGI (HCT-15 colon): 5.44 µM
GI50 (HL-60(TB) leukemia): 2.36 µM
TGI (HL-60(TB) leukemia): 5.78 µM
GI50 (HOP-62 NSCLC): 1.78 µM
TGI (HOP-62 NSCLC): 4.11 µM
GI50 (HS 578T breast): 2.65 µM
TGI (HS 578T breast): 11.4 µM
GI50 (HT29 colon): 1.87 µM
TGI (HT29 colon): 3.64 µM
GI50 (IGROV1 ovarian): 1.72 µM
TGI (IGROV1 ovarian): 4 µM
GI50 (K-562 leukemia): 3.14 µM
TGI (K-562 leukemia): > 100 µM
GI50 (KM12 colon): 2.02 µM
TGI (KM12 colon): 4.39 µM
GI50 (LOX IMVI melanoma): 1.55 µM
TGI (LOX IMVI melanoma): 2.97 µM
GI50 (M14 melanoma): 1.83 µM
TGI (M14 melanoma): 3.74 µM
GI50 (MALME-3M melanoma): 2.08 µM
TGI (MALME-3M melanoma): 5.3 µM
GI50 (MCF7 breast): 1.29 µM
TGI (MCF7 breast): 3.4 µM
GI50 (MDA-MB-231 breast): 1.97 µM
TGI (MDA-MB-231 breast): 4.84 µM
GI50 (MDA-MB-435): 2.32 µM
TGI (MDA-MB-435): 5.85 µM
GI50 (MOLT-4 leukemia): 2.97 µM
TGI (MOLT-4 leukemia): 10.5 µM
GI50 (NCI-H226 lung): 1.97 µM
TGI (NCI-H226 lung): 5.73 µM
GI50 (NCI-H23 lung): 1.87 µM
TGI (NCI-H23 lung): 4.08 µM
GI50 (NCI-H460 lung): 2.3 µM
TGI (NCI-H460 lung): 5.84 µM
GI50 (NCI-H522 lung): 1.66 µM
TGI (NCI-H522 lung): 3.79 µM
GI50 (NCI/ADR-RES ovarian): 2.96 µM
TGI (NCI/ADR-RES ovarian): 11.6 µM
GI50 (OVCAR-3 ovarian): 1.85 µM
TGI (OVCAR-3 ovarian): 3.58 µM
GI50 (OVCAR-4 ovarian): 1.46 µM
TGI (OVCAR-4 ovarian): 2.86 µM
GI50 (OVCAR-5 ovarian): 1.77 µM
TGI (OVCAR-5 ovarian): 3.41 µM
GI50 (OVCAR-8 ovarian): 2.14 µM
TGI (OVCAR-8 ovarian): 6.17 µM
GI50 (PC-3 prostate): 1.72 µM
TGI (PC-3 prostate): 4 µM
GI50 (RPMI-8226 leukemia): 2.42 µM
TGI (RPMI-8226 leukemia): 6.67 µM
GI50 (RXF 393 renal): 1.04 µM
TGI (RXF 393 renal): 2.39 µM
GI50 (SF-268 CNS): 3.13 µM
TGI (SF-268 CNS): 12.1 µM
GI50 (SF-295 CNS): 2.08 µM
TGI (SF-295 CNS): 5.29 µM
GI50 (SF-539 CNS): 1.74 µM
TGI (SF-539 CNS): 3.27 µM
GI50 (SK-MEL-2 melanoma): 2.32 µM
TGI (SK-MEL-2 melanoma): 5.58 µM
GI50 (SK-MEL-28 melanoma): 2.26 µM
TGI (SK-MEL-28 melanoma): 4.97 µM
GI50 (SK-MEL-5 melanoma): 1.89 µM
TGI (SK-MEL-5 melanoma): 3.69 µM
GI50 (SK-OV-3 ovarian): 2.85 µM
TGI (SK-OV-3 ovarian): 11.4 µM
GI50 (SN12C renal): 1.77 µM
TGI (SN12C renal): 3.61 µM
GI50 (SNB-19 CNS): 2.96 µM
TGI (SNB-19 CNS): 10.4 µM
GI50 (SNB-75 CNS): 1.52 µM
TGI (SNB-75 CNS): 3.02 µM
GI50 (SR leukemia): 1.08 µM
TGI (SR leukemia): > 100 µM
GI50 (SW-620 colon): 1.73 µM
TGI (SW-620 colon): 3.53 µM
GI50 (T-47D breast): 1.09 µM
TGI (T-47D breast): 2.74 µM
GI50 (TK-10 renal): 1.89 µM
TGI (TK-10 renal): 3.33 µM
GI50 (U251 CNS): 1.66 µM
TGI (U251 CNS): 3.27 µM
GI50 (UACC-257 melanoma): 2.17 µM
TGI (UACC-257 melanoma): 5.65 µM
GI50 (UACC-62 melanoma): 1.66 µM
TGI (UACC-62 melanoma): 3.36 µM
GI50 (UO-31 renal): 1.25 µM
TGI (UO-31 renal): 2.5 µM
